The text below walks through data of patent US10301355B2, “Method of using pharmaceutical compositions comprising selective peptide-based agonists of melanocortin 1 receptor” (University of Cincinnati, priority 2012, dated 2019).

Entries after “also recorded” stand apart in the source; their conditions may differ.

In data set [1] the target is T1, hMC3R (Homo sapiens, UniProt P41968).
T1 construct: expressed in transfected cells
Kind of data set: cAMP stimulation in heterologous cells expressing hMC3R. The class given is cell-based. On the procedure:
(§1) Receptor selectivity of peptide agonists for hMC1R was determined by stimulation of cAMP in heterologous cells expressing different human melanocortin receptors (MC1R, MC3R, MC4R, and MC5R).

The target of data set [2] is T2, hMC5R (Homo sapiens, UniProt P33032).
T2 construct: expressed in transfected cells
T2 sequence (P33032 whole entry): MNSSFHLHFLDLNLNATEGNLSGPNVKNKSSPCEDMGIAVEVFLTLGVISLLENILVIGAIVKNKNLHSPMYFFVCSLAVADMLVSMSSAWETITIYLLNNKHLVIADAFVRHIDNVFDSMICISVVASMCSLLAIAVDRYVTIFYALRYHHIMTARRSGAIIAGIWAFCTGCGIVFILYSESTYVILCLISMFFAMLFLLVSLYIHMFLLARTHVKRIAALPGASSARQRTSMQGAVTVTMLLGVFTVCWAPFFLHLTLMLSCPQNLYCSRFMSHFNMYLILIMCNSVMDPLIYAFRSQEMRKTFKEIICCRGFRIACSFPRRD
Kind of data set: cAMP stimulation in heterologous cells expressing hMC5R. The format is cell-based. On the procedure: as §1

Data set [3] deals with T3, MC1R (Homo sapiens, UniProt Q01726). Put plainly: cAMP stimulation in heterologous cells expressing hMC1R. The format is cell-based. The arrangement: expressed in transfected cells. The protocol: as §1
T3 sequence (Q01726 whole entry): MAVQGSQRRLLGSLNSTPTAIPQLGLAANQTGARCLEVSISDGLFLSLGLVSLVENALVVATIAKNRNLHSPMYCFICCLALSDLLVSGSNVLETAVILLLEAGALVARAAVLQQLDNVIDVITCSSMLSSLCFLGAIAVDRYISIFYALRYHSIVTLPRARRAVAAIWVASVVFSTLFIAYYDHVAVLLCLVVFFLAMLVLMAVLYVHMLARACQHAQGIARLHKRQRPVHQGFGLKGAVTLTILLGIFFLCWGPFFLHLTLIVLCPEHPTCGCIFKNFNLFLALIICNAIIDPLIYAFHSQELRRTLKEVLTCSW
A short description of data set [4]: Peptide storage stability by HPLC. The format is physicochemical. The conditions noted are these: lyophilized, open air, room temperature, 4 months. The protocol:
LK-513 (Ph(CH2)3CO-His-(D-4-Bip)-Arg-NHMe) was tested for stability and degradation over a storage period. The peptide was stored in a lyophilized form in open air at room temperature for 4 months. After 4 months, HPLC was performed on a test sample of the peptide in order to measure degradation, using standard methods (FIG. 1). […] Without being bound by theory, it is believed that the enhanced stability is a product of the absence of amide bonds between natural L-L-amino acids in the tripeptides and the existence of only one amide bond between natural amino acids in the tetrapeptides (Arg-Trp). Amide bonds between non-natural D- and natural L-amino acids are less prone to chemical and enzymatic hydrolysis, as evidenced by the FIG. 1. Further, the bulk and hydrophobicity of the X4 amino acid (D-Phe or a bulky hydrophobic analog thereof, such as D-4-Bip in the case of LK-513) shield the polar amid bonds of the peptide from chemical and enzymatic degradation.

Data set [5] has as its system tyrosinase. Kind of data set: Stimulation of tyrosinase activity in cultured human melanocytes. The format is cell-based. The protocol: Peptides were tested on cultured human melanocytes for their capacity for stimulating tyrosinase activity, the rate-limiting enzyme for melanin synthesis. Melanocytes were treated every other day, for a total of 6 days, with increasing concentrations of peptides. Medium containing H^3-tyrosine, the substrate for tyrosinase, was added to melanocytes 24 hours before the end of the 6-day treatment. Tyrosinase activity was measured by determining the amount of ^3H2O generated as […] is catalyzed by tyrosinase for melanin synthesis.
(§2) Peptides were tested as described in Example 4 above on cultured human melanocytes for their capacity to activate MC1R, as measured by stimulating cAMP formation, and for their capacity for stimulating tyrosinase activity, the rate-limiting enzyme for melanin synthesis. The tested peptides were synthesized according to the formula: Ar(CH2)mX^1—X^2—CO—X^3—X^4—X^5-(Trp)n-NX^6R wherein X^1 and X^2 are absent, X^3 is His, X^5 is Arg, and X^6 is H. X^4 amino acids were in the D-stereoisomer form, unless otherwise noted.

Data set [6] addresses T4, hMC4R (Homo sapiens, UniProt P32245).
T4 construct: expressed in transfected cells
Put plainly: cAMP stimulation in heterologous cells expressing hMC4R. The format is cell-based. The protocol: as §1

The target of data set [7] is T3, MC1R. Put plainly: Stimulation of cAMP formation in cultured human melanocytes. The format is cell-based. The arrangement: endogenous in cells; host or cells: cultured human melanocytes. On the procedure:
Peptides were tested on cultured human melanocytes for their capacity to activate MC1R, as measured by stimulating cAMP formation. After 45 minutes of treatment with different concentrations of peptides, cAMP levels were measured using a I^125-labeled radioimmunoassay kit.
as §2
On the technique in general: cAMP levels reflect the balance of adenylyl cyclase and phosphodiesterase activity.

Data set [8] deals with mouse MCRs. The following applies: cited from earlier work.
Data set [9] relates to human melanocytes. Put plainly: Potency in human melanocytes. The class given is cell-based.

T4 sequence (P32245 whole entry): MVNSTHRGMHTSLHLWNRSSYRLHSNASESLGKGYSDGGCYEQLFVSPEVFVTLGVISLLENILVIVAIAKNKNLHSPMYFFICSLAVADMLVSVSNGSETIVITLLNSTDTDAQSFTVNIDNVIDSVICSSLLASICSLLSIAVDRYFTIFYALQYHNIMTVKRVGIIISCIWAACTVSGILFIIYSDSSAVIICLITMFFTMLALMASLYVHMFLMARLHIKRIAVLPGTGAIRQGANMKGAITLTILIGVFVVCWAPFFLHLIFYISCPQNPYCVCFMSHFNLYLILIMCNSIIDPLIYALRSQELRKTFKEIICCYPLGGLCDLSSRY
T1 sequence (P41968 whole entry): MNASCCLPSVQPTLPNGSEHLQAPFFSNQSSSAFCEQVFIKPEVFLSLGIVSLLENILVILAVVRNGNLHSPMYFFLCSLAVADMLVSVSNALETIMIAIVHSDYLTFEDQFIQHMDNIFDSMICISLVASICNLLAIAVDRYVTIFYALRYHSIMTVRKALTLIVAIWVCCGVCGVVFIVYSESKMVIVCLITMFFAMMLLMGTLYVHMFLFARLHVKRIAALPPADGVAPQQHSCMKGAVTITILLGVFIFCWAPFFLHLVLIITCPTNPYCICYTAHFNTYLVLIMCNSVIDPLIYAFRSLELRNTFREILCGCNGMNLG

With `CNC(=O)[C@H](CCCNC(=N)N)NC(=O)[C@@H](Cc1ccc(-c2ccccc2)cc1)NC(=O)[C@H](Cc1c[nH]cn1)NC(=O)CCCc1ccccc1` [LK-513, Ph(CH2)3CO-His-(D-4-Bip)-Arg-NHMe], the “binding of MC3R” value in data set [1] was “do not bind”. In [2], the “binding of MC5R” value was “do not bind”. Further, in data set [3], the “potency in activation of MC1R compared with MT-II” value is “about as potent as MT-II”. Besides, the “HMC1R % MAX. ACTIVITY” value in [3] (cAMP, heterologous cells) turned out to be 95%. The “stability and degradation on storage (HPLC)” value in [4] was “highly stable and resistant to degradation, showing only a single HPLC peak; also recorded: highly stable and substantially free of degradation”. In addition, the “concentration at which significant stimulation of tyrosinase activity begins” value in data set [5] (human melanocytes, 6 days treatment) amounted to 1 nM. Moreover, the “TA compared to 10 nM αMSH” value in [5] (tyrosinase activity, cultured human melanocytes) is on record as “<”. The “binding of MC4R” value in data set [6] is “do not bind”. Moreover, the “cAMP compared to 10 nM αMSH” value in data set [7] (cultured human melanocytes) is “<”. Besides, the “potency in stimulating cAMP formation, comparison” value in data set [7] (human melanocytes, 45 minutes of treatment) was “about ten times less potent than a-MSH; also recorded: about ten times less potent than α-MSH”.

On to trans-4-HOC6H4CH═CHCO-His-D-Phe-Arg-NH2, for which, in data set [8], the “MC1R selectivity and potency compared to tripeptide LK-394” value is “moderately increased MC1R selectivity and potency”. In addition, in data set [9], the “potency in human melanocytes” value is “less potent in human melanocytes”.
